Results on 17 molecules are retold here after patent publication US20230339952A1, “MACROCYCLIC HETEROCYCLES AND USES THEREOF” (Kumquat Biosciences Inc., priority 2022, published 2023).

The structures appear in SMILES notation. Where two headings read alike, the source gives them in different places.

The target of one assay is SOS1 (Homo sapiens (Human), UniProt Q07889). The assay is described as follows: Ras-SOS interaction assay (HTRF), K-Ras G13D utilized. To be noted: K-Ras G13D. Type of assay: binding. The text has this:
For example, the equilibrium interaction of human SOS1 (hSOS1) with human wildtype Kras or K-Ras mutant (e.g., hK-Ras G12C mutant, or hK-Ras G12C) can be assessed as a proxy or an indication for a subject compound's ability to inhibit SOS. Detection of such interaction is achieved by measuring homogenous time-resolved fluorescence resonance energy transfer (HTRF) from (i) a fluorescence resonance energy transfer (FRET) donor (e.g., antiGST-Europium) that is bound to GST-tagged K-Ras G12C to (ii) a FRET acceptor (e.g., anti-6His-XL665) bound to a His-tagged hSOS1.
A Ras working solution is prepared in assay buffer containing typically 10 nM of the protein construct (e.g., GST-tagged hK-Ras G12C) and 2 nM of the FRET donor (e.g., antiGST-Eu(K) from Cisbio, France). A SOS1 working solution is prepared in assay buffer containing typically 10 nM of the protein construct (e.g., His-hSOS1) and 10 nM of the FRET acceptor (e.g., anti-6His-XL665 from Cisbio, France). An inhibitor control solution is prepared in assay buffer containing 10 nM of the FRET acceptor without the SOS1 protein.
A fixed reaction mixture with or without test compound is transferred into a 384-well plate. Ras working solution is added to all wells of the test plate. SOS1 working solution is added to all wells except for those that are subsequently filled with the inhibitor control solution. […] The ratiometric data (i.e., emission 2 divided by emission 1) is used to calculate IC50 values against SOS1 using GraphPad Prism (GraphPad software).
(In general: In TR-FRET formats the signal depends on donor and acceptor labels being close together.)

Assay [1] concerns NCI-H1975 (ATCC CRL-5908) cell line comprising an EGFR T790M L858R double mutation. As to the kind of experiment: EGFR-SOS cellular inhibition assay (CellTiter-Glo cell proliferation). Type of assay: cell-based. Conditions: Homo sapiens. A general note: In ATP-based viability assays light output follows the ATP content of the culture.
Procedure: A CellTiter-Glo (CTG) luminescent based assay (Promega) is used to assess growth of the cells, as a measurement of the ability of the compounds herein to inhibit EGFR signaling in the cells. […] The day after plating, cells are treated with a dilution series (e.g., a 9 point 3-fold dilution series) of the compounds herein (e.g., approximately 125 μL final volume per well).
Where [2] appears, read: 120 h, NCI-H1975 cell proliferation, approximately 5 days, read-out: H1975 IC50.
Setting [3] is: read-out: IC50 value against SOS1.

Chain of SOS1 (Q07889 564-1049): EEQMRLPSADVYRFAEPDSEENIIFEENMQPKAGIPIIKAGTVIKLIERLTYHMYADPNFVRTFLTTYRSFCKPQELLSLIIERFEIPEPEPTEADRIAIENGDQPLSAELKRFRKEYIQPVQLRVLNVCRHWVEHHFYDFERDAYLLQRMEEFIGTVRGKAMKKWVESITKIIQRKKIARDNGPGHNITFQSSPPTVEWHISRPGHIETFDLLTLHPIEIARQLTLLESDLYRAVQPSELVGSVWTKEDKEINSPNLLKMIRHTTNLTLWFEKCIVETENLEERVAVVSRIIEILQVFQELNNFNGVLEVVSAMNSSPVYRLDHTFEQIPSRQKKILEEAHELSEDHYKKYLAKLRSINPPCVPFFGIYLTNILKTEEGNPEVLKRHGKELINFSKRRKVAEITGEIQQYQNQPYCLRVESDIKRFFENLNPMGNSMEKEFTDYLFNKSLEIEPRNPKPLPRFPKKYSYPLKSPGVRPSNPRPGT

One may read the IC50 as the midpoint of a concentration-inhibition curve. As for `C[C@H]1Nc2ncnc3c2cc(C2(C#N)CC2)c(=O)n3CCCCNC(=O)[C@H](C)N2CCC(CC2)C(F)(F)c2cccc1c2` [Compound 153, 1-((4R,13S)-2,2-difluoro-4,13-dimethyl-6^7,12-dioxo-6^7,6^8-dihydro-5,11-diaza-6(4,8)-pyrido[2,3-d]pyrimidina-1(4,1)-piperidina-3(1,3)-benzenacyclotridecaphane-6^6-yl)cyclopropane-1-carbonitrile], the IC50 at SOS1 (read-out: SOS1 IC50) was less than 0.1 µM; in assay [1] (setting [2]), less than 1 µM. With `Cc1nc2c3cc(C4(C#N)CC4)c(=O)n(c3n1)CCC/C=C\CN1CCC(CC1)C(F)(F)c1cccc(c1)[C@@H](C)N2` [Compound 166, 1-((4R,Z)-2,2-difluoro-6^2,4-dimethyl-6^7-oxo-6^7,6^8-dihydro-5-aza-6(4,8)-pyrido[2,3-d]pyrimidina-1(4,1)-piperidina-3(1,3)-benzenacyclododecaphan-10-en-6^6-yl)cyclopropane-1-carbonitrile], the IC50 on SOS1 (setting [3]) was less than 0.05 µM; on SOS1 (read-out: SOS1 IC50), less than 0.1 µM; in assay [1] (setting [2]), less than 1 µM. For the molecule `C[C@H]1Nc2ncnc3c2cc(C2CCS(=O)(=O)CC2)c(=O)n3CCCC(=O)NCCN2CCC(CC2)C(F)(F)c2cccc1c2` [Compound 30, (4R)-6^6-(1,1-dioxidotetrahydro-2H-thiopyran-4-yl)-2,2-difluoro-4-methyl-6^7,6^8-dihydro-5,11-diaza-6(4,8)-pyrido[2,3-d]pyrimidina-1(4,1)-piperidina-3(1,3)-benzenacyclotridecaphane-6^7,10-dione], the figures for the concentration for half-maximal inhibition (IC50) (at SOS1 (read-out: SOS1 IC50); in assay [1] (setting [2])) were less than 0.1 µM and less than 1 µM, respectively. In the case of `C[C@H]1Nc2ncnc3c2cc(C2CCS(=O)(=O)CC2)c(=O)n3CCCCCCCN2CC(C2)CC(F)(F)c2cccc1c2F` [Compound 212, (3R)-1^6-(1,1-dioxidotetrahydro-2H-thiopyran-4-yl)-4^2,5,5-trifluoro-3-methyl-1^7,1^8-dihydro-2-aza-1(4,8)-pyrido[2,3-d]pyrimidina-7(3,1)-azetidina-4(1,3)-benzenacyclotetradecaphan-1^7-one], the IC50 at SOS1 (setting [3]) is less than 0.05 µM; on SOS1 (read-out: SOS1 IC50), less than 0.1 µM; in assay [1] (setting [2]), less than 1 µM; in assay [1] (NCI-H1975, EGFR T790M L858R double mutation, read-out: IC50 in inhibiting growth of NCI-H1975 cell line) it was less than 0.5 µM. Consider `C[C@H]1Nc2ncnc3c2cc(N2CCN(C4CCN(C)CC4)CC2)c(=O)n3CCCCCCCN2CCC(CC2)C(F)(F)c2cccc1c2F` [Compound 178, (4R)-3^2,2,2-trifluoro-4-methyl-6^6-(4-(1-methylpiperidin-4-yl)piperazin-1-yl)-6^7,6^8-dihydro-5-aza-6(4,8)-pyrido[2,3-d]pyrimidina-1(4,1)-piperidina-3(1,3)-benzenacyclotridecaphan-6^7-one], for which the values for the IC50 (at SOS1 (read-out: SOS1 IC50); in assay [1] (setting [2])) were less than 0.1 µM and less than 1 µM, respectively.

As for `C[C@H]1Nc2ncnc3c2cc(C2CCS(=O)(=O)CC2)c(=O)n3CCCCNC(=O)[C@H](C)N2CCC(CC2)C(F)(F)c2cccc1c2` [Compound 85, (4R,13S)-6^6-(1,1-dioxidotetrahydro-2H-thiopyran-4-yl)-2,2-difluoro-4,13-dimethyl-6^7,6^8-dihydro-5,11-diaza-6(4,8)-pyrido[2,3-d]pyrimidina-1(4,1)-piperidina-3(1,3)-benzenacyclotridecaphane-6^7,12-dione], the results for the IC50 (on SOS1 (read-out: SOS1 IC50); in assay [1] (setting [2])) were less than 0.1 µM and less than 1 µM, respectively. As for `C[C@H]1Nc2ncnc3c2cc(C2CCS(=O)(=O)CC2)c(=O)n3CCCC/C=C/CN2CCC(CC2(C)C)C(F)(F)c2cccc1c2` (stereo partly drawn) [Compound 74, (4R,E)-6^6-(1,1-dioxidotetrahydro-2H-thiopyran-4-yl)-2,2-difluoro-1^2,1^2,4-trimethyl-6^7,6^8-dihydro-5-aza-6(4,8)-pyrido[2,3-d]pyrimidina-1(4,1)-piperidina-3(1,3)-benzenacyclotridecaphan-11-en-6^7-one], the half-maximal inhibitory concentration (IC50) on SOS1 (read-out: SOS1 IC50) is less than 0.1 µM; in assay [1] (setting [2]), less than 1 µM. With `Cc1nc2c3cc(C4CCS(=O)(=O)CC4)c(=O)n(c3n1)CCCC/C=C\CC(C)(O)C(F)(F)c1cccc(c1)[C@@H](C)N2` (stereo partly drawn) [Compound 12, (3R,Z)-1^6-(1,1-dioxidotetrahydro-2H-thiopyran-4-yl)-5,5-difluoro-6-hydroxy-1^2,3,6-trimethyl-1^7,1^8-dihydro-2-aza-1(4,8)-pyrido[2,3-d]pyrimidina-4(1,3)-benzenacyclotridecaphan-8-en-1^7-one], the IC50 is 0.1 to 5 µM on SOS1 (read-out: SOS1 IC50) and less than 1 µM in assay [1] (setting [2]). Take `C[C@H]1Nc2ncnc3c2cc(C2CCS(=O)(=O)CC2)c(=O)n3CCCCCCCCCN2CCC(CC2)C(F)(F)c2cccc1c2` [Compound 47, (4R)-6^6-(1,1-dioxidotetrahydro-2H-thiopyran-4-yl)-2,2-difluoro-4-methyl-6^7,6^8-dihydro-5-aza-6(4,8)-pyrido[2,3-d]pyrimidina-1(4,1)-piperidina-3(1,3)-benzenacyclopentadecaphan-6^7-one]: the IC50 is less than 0.1 µM on SOS1 (read-out: SOS1 IC50) and less than 1 µM in assay [1] (setting [2]). Take `CC(C)N1CCC(c2cc3c4ncnc3n(c2=O)CCCCCCCN2CCC(CC2)C(F)(F)c2cccc(c2)[C@@H](C)N4)CC1` [Compound 73, (4R)-2,2-difluoro-6^6-(1-isopropylpiperidin-4-yl)-4-methyl-6^7,6^8-dihydro-5-aza-6(4,8)-pyrido[2,3-d]pyrimidina-1(4,1)-piperidina-3(1,3)-benzenacyclotridecaphan-6^7-one]: the concentration for half-maximal inhibition (IC50) at SOS1 (read-out: SOS1 IC50) is less than 0.1 µM; in assay [1] (setting [2]) it was less than 1 µM. As to `CC1CC/C=C\CCn2c(=O)c(C3(C#N)CC3)cc3c(ncnc32)N[C@H](C)c2cccc(c2)C(F)(F)C2CCN1CC2` (stereo partly drawn) [Compound 100, 1-((4R,Z)-2,2-difluoro-4,13-dimethyl-6^7-oxo-6^7,6^8-dihydro-5-aza-6(4,8)-pyrido[2,3-d]pyrimidina-1(4,1)-piperidina-3(1,3)-benzenacyclotridecaphan-9-en-6^6-yl)cyclopropane-1-carbonitrile], the IC50 in assay [1] (setting [2]) was less than 1 µM. For the molecule `C[C@H]1Nc2nc(=O)n(c3c2cc(C2(C#N)CC2)c(=O)n3C)CC/C=C\COCC(F)(F)c2cccc1c2F` [Compound 102, 1-((1^3E,3R,9Z)-4^2,5,5-trifluoro-1^8,3-dimethyl-1^2,1^7-dioxo-1^1,1^2,1^7,1^8-tetrahydro-7-oxa-2-aza-1(4,1)-pyrido[2,3-d]pyrimidina-4(1,3)-benzenacyclododecaphan-9-en-1^6-yl)cyclopropane-1-carbonitrile], at SOS1 (read-out: SOS1 IC50), the concentration for half-maximal inhibition (IC50) was in the range of 0.1 to 5 µM. Regarding `Cc1nnc2c3cc(N4CCOCC4)cc(c13)OCCCCCCN1CCC(CC1)C(F)(F)c1cccc(c1)[C@@H](C)N2` [Compound 196, (R)-2,2-difluoro-6^4,4-dimethyl-6^7-morpholino-7-oxa-5-aza-6(1,5)-phthalazina-1(4,1)-piperidina-3(1,3)-benzenacyclotridecaphane], on SOS1 (read-out: SOS1 IC50), the IC50 was less than 0.1 µM. `Cc1nc2c3cc(C4CCS(=O)(=O)CC4)c(=O)n(c3n1)CCCCCCCN1CCC(CC1)C(F)(F)c1cccc(c1)[C@@H](C)N2` [Compound 7, (4R)-6^6-(1,1-dioxidotetrahydro-2H-thiopyran-4-yl)-2,2-difluoro-6^2,4-dimethyl-6^7,6^8-dihydro-5-aza-6(4,8)-pyrido[2,3-d]pyrimidina-1(4,1)-piperidina-3(1,3)-benzenacyclotridecaphan-6^7-one]: on SOS1 (read-out: SOS1 IC50), the IC50 lay within 0.1 to 5 µM. Turning to `Cc1nc2c3cc(C4(C#N)CC4)c(=O)n(c3n1)CCCCCC/C=C\CC(C)(O)C(F)(F)c1cccc(c1)[C@@H](C)N2` (stereo partly drawn) [Compound 18, 1-((3R,Z)-5,5-difluoro-6-hydroxy-1^2,3,6-trimethyl-1^7-oxo-1^7,1^8-dihydro-2-aza-1(4,8)-pyrido[2,3-d]pyrimidina-4(1,3)-benzenacyclopentadecaphan-8-en-1^6-yl)cyclopropane-1-carbonitrile], the IC50 on SOS1 (read-out: SOS1 IC50) lay within 0.1 to 5 µM. For the molecule `C[C@H]1Nc2nc(=O)n(c3c2cc(C2(C#N)CC2)c(=O)n3C)C/C=C\COCC(F)(F)c2cccc1c2F` [Compound 66, 1-((1^3E,3R,9Z)-4^2,5,5-trifluoro-1^8,3-dimethyl-1^2,1^7-dioxo-1^1,1^2,1^7,1^8-tetrahydro-7-oxa-2-aza-1(4,1)-pyrido[2,3-d]pyrimidina-4(1,3)-benzenacycloundecaphan-9-en-1^6-yl)cyclopropane-1-carbonitrile], the 50% inhibitory concentration (IC50) at SOS1 (read-out: SOS1 IC50) is 0.1 to 5 µM. As for `C[C@H]1Nc2ncnc3c2cc(C2CCS(=O)(=O)CC2)c(=O)n3CCCOCCCN2CCC(CC2)CC(F)(F)c2cccc1c2` [Compound 194, (3R)-1^6-(1,1-dioxidotetrahydro-2H-thiopyran-4-yl)-5,5-difluoro-3-methyl-1^7,1^8-dihydro-11-oxa-2-aza-1(4,8)-pyrido[2,3-d]pyrimidina-7(4,1)-piperidina-4(1,3)-benzenacyclotetradecaphan-1^7-one], the IC50 on SOS1 (read-out: SOS1 IC50) is less than 0.1 µM.
